Where two headings read alike, the source gives them in different places.
How the values were obtained:
[1] = molecular target: PRMT5-MTA (Homo sapiens, UniProt O14744); experiment: Enzymatic inhibitory activity against PRMT5-MTA (AlphaScreen); type: biochemical
Summary of the method: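 PRMT5/[…] (1 nM) was preincubated for 30 min at room temperature with 1 µM […] and 2.5 µM SAM, then exposed to compound (10-point, 3-fold from 1000 nM) for 15 min at 23 °C. Histone H4 substrate (5 nM) was added and reacted for 45 min at 23 °C. Symmetric dimethyl-R3 H4 was detected by AlphaScreen and IC50 calculated.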

[2] = tested on: HCT116 MTAP KO cells; experiment: Inhibitory activity against cell proliferation (CellTiter Glo, 6 days), HCT116 MTAP KO; type: cell-based; details: for IC50: Homo sapiens, HCT-116, 144 h, HCT116 MTAP KO cells, 6 days, CellTiter Glo, read-out: HCT116 MTAP KO IC50; for Selectivity HCT 116-WT/ HCT116 MTAP KO: ratio of IC50 HCT116-WT / HCT116 MTAP KO
Summary of the method: (§1)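 HCT116 wild-type or MTAP-knockout cells (250/well, McCoy's 5A + 10% FBS) treated after overnight culture with 8-point 4-fold dilutions from 10000 nM for 6 days at 37 °C. Viability read by CellTiter Glo luminescence on day 7; IC50 calculated against DMSO controls.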

[3] = tested on: HCT116-WT cells; experiment: Inhibitory activity against cell proliferation (CellTiter Glo, 6 days), HCT116-WT; type: cell-based; details: 144 h, HCT116-WT cells, 6 days, CellTiter Glo; read-out: HCT116-WT IC50
Summary of the method: as §1

PRMT5-MTA, sequence (O14744 whole entry): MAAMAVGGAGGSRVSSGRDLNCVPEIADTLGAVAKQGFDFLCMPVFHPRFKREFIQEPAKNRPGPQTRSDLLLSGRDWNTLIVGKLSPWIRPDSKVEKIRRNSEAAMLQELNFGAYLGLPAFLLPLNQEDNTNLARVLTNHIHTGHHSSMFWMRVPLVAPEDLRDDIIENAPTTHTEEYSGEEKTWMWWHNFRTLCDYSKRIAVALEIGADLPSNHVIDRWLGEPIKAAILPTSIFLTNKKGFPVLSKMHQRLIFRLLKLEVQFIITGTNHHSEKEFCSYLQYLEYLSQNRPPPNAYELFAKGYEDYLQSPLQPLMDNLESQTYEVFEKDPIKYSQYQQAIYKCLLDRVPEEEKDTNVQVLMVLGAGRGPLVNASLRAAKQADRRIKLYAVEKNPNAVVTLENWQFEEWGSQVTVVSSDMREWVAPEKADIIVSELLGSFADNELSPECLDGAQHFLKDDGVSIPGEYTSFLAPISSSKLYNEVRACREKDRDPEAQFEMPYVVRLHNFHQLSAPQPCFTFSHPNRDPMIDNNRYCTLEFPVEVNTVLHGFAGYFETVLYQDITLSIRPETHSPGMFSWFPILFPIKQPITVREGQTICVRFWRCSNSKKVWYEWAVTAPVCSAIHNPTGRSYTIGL
PRMT5-MTA, sequence (Q9BQA1 whole entry partner): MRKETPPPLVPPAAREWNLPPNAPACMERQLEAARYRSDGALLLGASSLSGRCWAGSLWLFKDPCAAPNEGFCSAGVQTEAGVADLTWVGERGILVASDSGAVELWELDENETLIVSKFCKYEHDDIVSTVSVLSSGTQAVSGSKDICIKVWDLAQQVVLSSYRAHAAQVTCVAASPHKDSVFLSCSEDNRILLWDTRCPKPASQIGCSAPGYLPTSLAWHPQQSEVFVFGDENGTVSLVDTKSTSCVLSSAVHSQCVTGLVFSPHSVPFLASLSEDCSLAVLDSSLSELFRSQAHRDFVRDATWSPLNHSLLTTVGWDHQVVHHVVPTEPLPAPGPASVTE

Compound	IC50 ([1]; read-out: IC50) [nM]	IC50 [2] [nM]	Selectivity HCT 116-WT/ HCT116 MTAP KO [2]	IC50 [3] [nM]	IC50 [1] [nM]
CN(c1ncccn1)N(Cc1ccc(-c2cnn(C(F)(F)F)c2)cn1)C(=O)c1ccc2nc(N)c(CO)cc2c1 [Example 322, 2-amino-3-(hydroxymethyl)-N'-methyl-N '-(pyrimidin-2-yl)-N-((5-(1-(trifluoromethyl)-1H-pyrazol-4-yl)pyridin-2-yl)methyl) quinoline-6-carbohydrazide]	4.4	268	16.31	4370	–
CN(c1ncccn1)N(Cc1ccc(C(F)(F)F)cn1)C(=O)c1ccc2nc(N)c(CO)cc2c1 [Example 325, 2-amino-3-hydroxymethyl-N'-methyl-N'-(pyrimidin-2-yl)-N-((5-(trifluoromethyl)pyridin-2-yl)methyl)quinoline-6-carbohydrazide]	2.3	82	38.72	3180	–
Cc1cc2nc(N)c3cnn(C)c3c2cc1C(=O)N1CC(C)CN1c1ncccc1F (stereo not shown) [Example 328, (4-amino-1,7-dimethyl-1H-pyrazolo[4,3-c]quinolin-8-yl)(2-(3-fluoropyridin-2-yl)-4-methylpyrazolidin-1-yl)methanone]	6.5	38	61.63	2340	–
Cc1cc2nc(N)c3cnn(C)c3c2cc1C(=O)N1CC(C)(C)CN1c1ncccc1F [Example 330, (4-amino-1,7-dimethyl-1H-pyrazolo[4,3-c]quinolin-8-yl)(2-(3-fluoropyridin-2-yl)-4,4-dimethylpyrazolidin-1-yl)methanone]	13	24	25.13	603	–
Cc1cc2nc(N)c3cnn(C)c3c2cc1C(=O)N1CC(C)CN1c1cc(F)ccc1F (stereo not shown) [Example 335, (4-amino-1,7-dimethyl-1H-pyrazolo[4,3-c]quinolin-8-yl)(2-(2,5-difluorophenyl)-4-methylpyrazolidin-1-yl)methanone]	3.3	15	42.93	644	–
Cc1cc2nc(N)c3cnn(C)c3c2cc1C(=O)N1CCCN1c1ccc(C(F)(F)F)cn1 [Example 338, (4-amino-1,7-dimethyl-1H-pyrazolo[4,3-c]quinolin-8-yl)(2-(5-(trifluoromethyl)pyridin-2-yl)pyrazolidin-1-yl)methanone]	2.8	153	24.64	3770	–
Cn1ncc2c(N)nc3cc(F)c(C(=O)N4CCCN4c4ccc(C(F)(F)F)cn4)cc3c21 [Example 340, (4-amino-7-fluoro-1-methyl-1H-pyrazolo [4,3-c]quinolin-8-yl)(2-(5-(trifluoromethyl)pyridin-2-yl)pyrazolidin-1-yl)methanone]	4.2	295	–	> 10000	–
Cc1cc2nc(N)c3cnn(C)c3c2cc1C(=O)N1CCCN1c1ncccc1F [Example 342, (4-amino-1,7-dimethyl-1H-pyrazolo[4,3-c]quinolin-8-yl)(2-(3-fluoropyridin-2-yl)pyrazolidin-1-yl)methanone]	3.8	100	67.95	6800	–
Cc1cc2nc(N)c3cnn(C)c3c2cc1C(=O)N1CCCCN1c1ccc(C(F)(F)F)cn1 [Example 343, (4-amino-1,7-dimethyl-1H-pyrazolo[4,3-c]quinolin-8-yl)(2-(5-(trifluoromethyl)pyridin-2-yl)tetrahydropyridazin-1 (2H)-yl) methanone]	3.9	212	22.90	4860	–
Cn1ncc2c(N)nc3cc(Cl)c(C(=O)N4CC5(CC5)CN4c4ncc(Br)cc4F)cc3c21 [Example 345, (4-amino-7-chloro-1-methyl-1H-pyrazolo [4,3-c]quinolin-8-yl)(6-(5-bromo-3-fluor opyridin-2-yl)-5,6-diazaspiro[2.4]heptan-5-yl)methanone]	4.4	44	17.57	773	–
Cc1cc2nc(N)c3cnn(C)c3c2cc1C(=O)N1CC(C)CN1c1ccc(F)cn1 (stereo not shown) [Example 346, (4-amino-1,7-dimethyl-1H-pyrazolo[4,3-c]quinolin-8-yl)(2-(5-fluoropyridin-2-yl)-4-methylpyrazolidin-1-yl)methanone]	3.6	53	41.25	2190	–
Cn1ncc2c(N)nc3cc(Cl)c(C(=O)N4CC5(CC5)CN4c4ncc(Cl)cc4F)cc3c21 [Example 347, (4-amino-7-chloro-1-methyl-1H-pyrazolo [4,3-c]quinolin-8-yl)(6-(5-chloro-3-fluoropyridin-2-yl)-5,6-diazaspiro[2.4]heptan-5-yl)methanone]	7.1	32	39.88	1280	–
Cc1cc2nc(N)c3cnn(C)c3c2cc1C(=O)N1CC2(CCC2)CN1c1ncccc1F [Example 348, (4-amino-1,7-dimethyl-1H-pyrazolo[4,3-c]quinolin-8-yl)(7-(3-fluoropyridin-2-yl)-6,7-diazaspiro[3.4]octan-6-yl)methanone]	7.5	6.9	30.14	208	–
Cc1cc2nc(N)c3cnn(C)c3c2cc1C(=O)N1CC(C(F)(F)F)CN1c1ncccc1F (stereo not shown) [Example 350, (4-amino-1,7-dimethyl-1H-pyrazolo[4,3-c]quinolin-8-yl)(2-(3-fluoropyridin-2-yl)-4-(trifluoromethyl)pyrazolidin-1-yl)methanone]	3.5	29	35.38	1030	–
Cn1ncc2c(N)nc3cc(Cl)c(C(=O)N4CC(C(F)(F)F)CN4c4ncccc4F)cc3c21 (stereo not shown) [Example 351, (4-amino-7-chloro-1-methyl-1H-pyrazolo [4,3-c]quinolin-8-yl)(2-(3-fluoropyridin-2-yl)-4-(trifluoromethyl)pyrazolidin-1-yl) methanone]	4.9	85	21.59	1840	–
Cc1cc2nc(N)c3cnn(C)c3c2cc1C(=O)N1CC(C(F)(F)F)CN1c1cccc(F)n1 (stereo not shown) [Example 352, (4-amino-1,7-dimethyl-1H-pyrazolo[4,3-c]quinolin-8-yl)(2-(6-fluoropyridin-2-yl)-4-(trifluoromethyl)pyrazolidin-1-yl)meth anone]	12.5	77	29.42	2260	–
Cn1ncc2c(N)nc3cc(Cl)c(C(=O)N4CC(C(F)(F)F)CN4c4cccc(F)n4)cc3c21 (stereo not shown) [Example 353, (4-amino-7-chloro-1-methyl-1H-pyrazolo [4,3-c]quinolin-8-yl)(2-(6-fluoropyridin-2-yl)-4-(trifluoromethyl)pyrazolidin-1-yl) methanone]	6.3	108	16.81	1820	–
Cc1cc2nc(N)c3cnn(C)c3c2cc1C(=O)N1CC(=O)CN1c1ncccc1F [Example 354, 1-(4-amino-1,7-dimethyl-1H-pyrazolo[4,3-c]quinoline-8-carbonyl)-2-(3-fluoropyridin-2-yl)pyrazolin-4-one]	3.8	62	40.76	2530	–
COCC1CN(C(=O)c2cc3c(cc2C)nc(N)c2cnn(C)c23)N(c2ncccc2F)C1 (stereo not shown) [Example 357]	–	16	53.25	852	3.4
Cc1cc2nc(N)c3cnn(C)c3c2cc1C(=O)N1CC(CO)CN1c1ncccc1F (stereo not shown) [Example 358, (4-amino-1,7-dimethyl-1H-pyrazolo[4,3-c]quinolin-8-yl)(2-(3-fluoropyridin-2-yl)-4-(hydroxymethyl)pyrazolidin-1-yl)methanone]	6.7	303	>33.00	> 10000	–
Cn1ncc2c(N)nc3cc(Cl)c(C(=O)N4CC(CF)CN4c4ncccc4F)cc3c21 (stereo not shown) [Example 359, (4-amino-7-chloro-1-methyl-1H-pyrazolo[4,3-c]quinolin-8-yl)(4-(fluoromethyl)-2-(3-fluoropyridin-2-yl)pyrazolin-1-yl)methanone]	–	50	23.50	1180	2.7
Cc1cc2nc(N)c3cnn(C)c3c2cc1C(=O)N1CC(C)CN1c1cccc(F)n1 (stereo not shown) [Example 360, (4-amino-1,7-dimethyl-1H-pyrazolo[4,3-c]quinolin-8-yl)(2-(6-fluoropyridin-2-yl)-4-methylpyrazolidin-1-yl)methanone]	5.2	23	50.74	1170	–
Cc1cc2nc(N)c3cnn(C)c3c2cc1C(=O)N1CC(C)CN1c1cccc(C#N)n1 (stereo not shown) [Example 365, 6-(2-(4-amino-1,7-dimethyl-1H-pyrazolo [4,3-c]quinoline-8-formyl)-4-methylpyrazolidin-1-yl)pyridinecarbonitrile]	3.2	35	48.37	1690	–

From patent EP4745134A1 (Jiangsu Yahong Meditech Co., Ltd., priority 2023, dated 2025)
